Experimental data: ChEMBL document CHEMBL4507276 (2021)

What was measured:
Conditions in all cases: Compound concentration 1000.0 nM
[1] = target: T1, Myotonin-protein kinase (Homo sapiens) (UniProt Q09013)
T1 sequence (whole entry): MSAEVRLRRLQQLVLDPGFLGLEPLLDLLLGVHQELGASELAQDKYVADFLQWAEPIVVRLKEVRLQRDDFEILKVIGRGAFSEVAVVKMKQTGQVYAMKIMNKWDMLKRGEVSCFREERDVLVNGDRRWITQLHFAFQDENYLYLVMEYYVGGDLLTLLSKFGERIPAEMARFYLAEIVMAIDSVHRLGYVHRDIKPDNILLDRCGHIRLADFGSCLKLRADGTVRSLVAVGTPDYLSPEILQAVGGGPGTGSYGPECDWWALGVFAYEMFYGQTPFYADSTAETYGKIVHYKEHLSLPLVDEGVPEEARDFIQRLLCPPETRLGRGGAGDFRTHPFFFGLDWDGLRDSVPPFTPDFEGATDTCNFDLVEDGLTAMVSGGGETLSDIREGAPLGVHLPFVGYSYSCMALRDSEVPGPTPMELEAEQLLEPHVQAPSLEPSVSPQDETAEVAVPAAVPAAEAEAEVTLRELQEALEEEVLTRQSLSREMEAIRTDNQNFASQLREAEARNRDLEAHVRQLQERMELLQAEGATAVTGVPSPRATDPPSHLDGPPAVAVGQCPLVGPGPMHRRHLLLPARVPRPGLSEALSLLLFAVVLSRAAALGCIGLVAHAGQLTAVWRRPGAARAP

[2] = target: T2, Serine/threonine-protein kinase Nek1 (Homo sapiens) (UniProt Q96PY6)
T2 sequence (whole entry): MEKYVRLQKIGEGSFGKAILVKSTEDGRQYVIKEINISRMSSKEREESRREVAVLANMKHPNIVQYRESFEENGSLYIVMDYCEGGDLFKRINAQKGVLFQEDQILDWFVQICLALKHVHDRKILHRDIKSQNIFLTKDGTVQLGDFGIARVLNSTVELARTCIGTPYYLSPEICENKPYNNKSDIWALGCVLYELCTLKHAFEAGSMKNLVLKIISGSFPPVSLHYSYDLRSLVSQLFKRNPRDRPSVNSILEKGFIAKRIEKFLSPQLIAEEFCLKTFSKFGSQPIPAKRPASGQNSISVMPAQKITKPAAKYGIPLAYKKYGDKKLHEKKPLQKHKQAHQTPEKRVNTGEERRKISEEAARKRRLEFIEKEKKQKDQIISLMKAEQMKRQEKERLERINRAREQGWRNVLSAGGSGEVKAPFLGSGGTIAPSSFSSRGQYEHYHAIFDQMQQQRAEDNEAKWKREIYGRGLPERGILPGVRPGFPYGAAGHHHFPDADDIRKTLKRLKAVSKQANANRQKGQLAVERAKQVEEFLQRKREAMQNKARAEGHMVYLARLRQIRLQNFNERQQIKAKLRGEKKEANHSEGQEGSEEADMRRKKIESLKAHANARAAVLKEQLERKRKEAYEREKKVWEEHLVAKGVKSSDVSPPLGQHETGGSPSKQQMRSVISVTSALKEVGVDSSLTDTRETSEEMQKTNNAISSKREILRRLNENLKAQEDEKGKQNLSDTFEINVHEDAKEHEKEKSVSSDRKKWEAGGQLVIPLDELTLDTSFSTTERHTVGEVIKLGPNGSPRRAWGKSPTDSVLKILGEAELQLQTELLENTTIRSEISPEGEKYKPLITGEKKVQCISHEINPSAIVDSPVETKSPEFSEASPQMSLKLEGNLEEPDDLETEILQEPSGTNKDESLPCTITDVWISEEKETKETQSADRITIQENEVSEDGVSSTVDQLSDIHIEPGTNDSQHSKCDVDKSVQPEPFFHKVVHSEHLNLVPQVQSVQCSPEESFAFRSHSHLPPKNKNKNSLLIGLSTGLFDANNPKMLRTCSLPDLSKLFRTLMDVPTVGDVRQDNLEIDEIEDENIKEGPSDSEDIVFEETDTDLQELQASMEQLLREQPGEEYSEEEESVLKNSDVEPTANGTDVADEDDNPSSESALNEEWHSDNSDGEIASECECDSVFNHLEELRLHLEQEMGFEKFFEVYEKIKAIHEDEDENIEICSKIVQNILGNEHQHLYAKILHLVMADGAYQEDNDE

[3] = target: Ribosomal protein S6 kinase alpha-4 (Homo sapiens) (UniProt O75676)
Ribosomal protein S6 kinase alpha-4 (Homo sapiens), sequence (O75676 whole entry, looked up): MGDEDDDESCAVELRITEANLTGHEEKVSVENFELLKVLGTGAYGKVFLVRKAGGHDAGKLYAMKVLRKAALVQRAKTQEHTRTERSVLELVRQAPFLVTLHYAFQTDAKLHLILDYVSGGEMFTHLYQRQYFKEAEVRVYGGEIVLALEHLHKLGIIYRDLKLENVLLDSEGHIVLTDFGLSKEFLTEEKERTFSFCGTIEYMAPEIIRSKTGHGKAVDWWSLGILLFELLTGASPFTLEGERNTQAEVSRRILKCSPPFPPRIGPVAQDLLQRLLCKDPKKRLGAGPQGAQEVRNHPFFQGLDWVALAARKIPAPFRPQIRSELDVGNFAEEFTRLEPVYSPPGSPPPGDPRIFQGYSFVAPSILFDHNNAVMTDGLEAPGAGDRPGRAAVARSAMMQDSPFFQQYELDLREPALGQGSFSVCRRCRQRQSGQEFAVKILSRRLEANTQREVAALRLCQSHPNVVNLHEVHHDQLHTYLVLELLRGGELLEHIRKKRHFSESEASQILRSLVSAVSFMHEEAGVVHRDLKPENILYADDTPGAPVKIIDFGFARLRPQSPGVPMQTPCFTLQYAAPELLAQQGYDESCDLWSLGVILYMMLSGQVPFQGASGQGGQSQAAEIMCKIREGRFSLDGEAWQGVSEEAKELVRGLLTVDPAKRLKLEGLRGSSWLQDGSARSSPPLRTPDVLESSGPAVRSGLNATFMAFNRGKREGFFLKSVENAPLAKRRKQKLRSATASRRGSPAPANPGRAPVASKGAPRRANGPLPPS

[4] = target: T3, Tyrosine-protein kinase ITK/TSK (Homo sapiens) (UniProt Q08881)
T3 sequence (whole entry): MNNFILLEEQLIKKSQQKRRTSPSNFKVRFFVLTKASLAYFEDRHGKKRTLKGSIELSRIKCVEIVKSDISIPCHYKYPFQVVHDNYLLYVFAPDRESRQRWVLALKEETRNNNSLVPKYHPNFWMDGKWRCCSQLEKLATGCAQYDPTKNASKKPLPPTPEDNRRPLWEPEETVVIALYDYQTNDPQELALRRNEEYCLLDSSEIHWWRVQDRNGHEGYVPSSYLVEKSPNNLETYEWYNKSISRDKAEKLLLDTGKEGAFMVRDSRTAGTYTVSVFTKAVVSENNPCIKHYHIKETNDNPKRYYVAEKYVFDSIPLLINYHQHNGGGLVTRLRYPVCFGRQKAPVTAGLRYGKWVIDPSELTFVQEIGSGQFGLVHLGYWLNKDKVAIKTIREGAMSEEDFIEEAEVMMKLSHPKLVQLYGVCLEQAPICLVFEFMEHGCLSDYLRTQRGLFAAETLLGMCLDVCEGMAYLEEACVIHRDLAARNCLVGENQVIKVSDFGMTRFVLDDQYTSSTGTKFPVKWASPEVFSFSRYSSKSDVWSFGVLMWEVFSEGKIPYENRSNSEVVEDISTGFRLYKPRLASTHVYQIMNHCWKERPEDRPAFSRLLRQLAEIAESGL

[5] = target: Mitogen-activated protein kinase kinase kinase 20 (Homo sapiens) (UniProt Q9NYL2)
Mitogen-activated protein kinase kinase kinase 20 (Homo sapiens), sequence (Q9NYL2 2-800 limits assumed): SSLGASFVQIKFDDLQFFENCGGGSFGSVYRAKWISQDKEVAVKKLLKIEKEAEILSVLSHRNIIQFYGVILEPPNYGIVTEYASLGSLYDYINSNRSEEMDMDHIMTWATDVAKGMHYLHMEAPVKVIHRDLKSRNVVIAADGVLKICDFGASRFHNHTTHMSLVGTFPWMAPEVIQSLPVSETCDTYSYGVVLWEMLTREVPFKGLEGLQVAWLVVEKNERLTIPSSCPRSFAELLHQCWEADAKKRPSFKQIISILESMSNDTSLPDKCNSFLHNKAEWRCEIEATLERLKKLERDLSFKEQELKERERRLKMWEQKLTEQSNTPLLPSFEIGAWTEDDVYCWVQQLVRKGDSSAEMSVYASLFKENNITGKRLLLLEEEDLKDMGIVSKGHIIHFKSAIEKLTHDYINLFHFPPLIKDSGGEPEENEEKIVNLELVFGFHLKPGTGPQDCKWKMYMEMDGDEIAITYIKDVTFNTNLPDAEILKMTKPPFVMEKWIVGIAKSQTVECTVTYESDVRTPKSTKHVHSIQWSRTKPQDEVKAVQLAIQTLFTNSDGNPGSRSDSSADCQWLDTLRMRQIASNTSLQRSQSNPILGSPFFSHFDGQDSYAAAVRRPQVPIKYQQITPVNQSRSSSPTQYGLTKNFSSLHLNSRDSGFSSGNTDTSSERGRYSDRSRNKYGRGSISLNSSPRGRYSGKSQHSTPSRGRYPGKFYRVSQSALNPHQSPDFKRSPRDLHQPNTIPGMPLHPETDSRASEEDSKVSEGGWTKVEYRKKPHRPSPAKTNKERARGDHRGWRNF

[6] = target: LIM domain kinase 2 (Homo sapiens) (UniProt P53671)
LIM domain kinase 2 (Homo sapiens), sequence (P53671 whole entry, looked up, the tested form may be a part): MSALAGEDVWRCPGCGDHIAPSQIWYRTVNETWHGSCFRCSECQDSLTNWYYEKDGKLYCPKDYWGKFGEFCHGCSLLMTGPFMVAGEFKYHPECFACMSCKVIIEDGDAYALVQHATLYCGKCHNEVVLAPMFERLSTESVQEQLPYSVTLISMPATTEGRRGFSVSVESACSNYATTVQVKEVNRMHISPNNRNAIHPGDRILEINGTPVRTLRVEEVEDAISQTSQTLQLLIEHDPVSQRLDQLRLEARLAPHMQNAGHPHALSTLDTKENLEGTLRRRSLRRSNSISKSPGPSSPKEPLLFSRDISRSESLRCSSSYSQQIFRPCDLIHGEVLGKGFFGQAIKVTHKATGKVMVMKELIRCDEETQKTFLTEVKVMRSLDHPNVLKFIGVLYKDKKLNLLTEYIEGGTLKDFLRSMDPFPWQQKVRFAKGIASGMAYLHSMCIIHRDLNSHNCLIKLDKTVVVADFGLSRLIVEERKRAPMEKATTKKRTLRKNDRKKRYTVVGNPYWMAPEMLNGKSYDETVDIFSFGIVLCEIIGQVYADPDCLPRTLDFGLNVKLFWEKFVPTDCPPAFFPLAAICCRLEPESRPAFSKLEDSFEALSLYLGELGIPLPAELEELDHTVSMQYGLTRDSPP

Measured: residual activity

CN(C)C(=O)Cn1cc(-c2nc(C3(c4ccc(-c5cnc(N)nc5)cc4)CC3)no2)cn1 [BI 0153]
inactive: [1] 82% | [2] 100% | [3] 86% | [4] 92% | [5] 92% | [6] 85%

CN(C)C(=O)Cn1cc(-c2nc([C@@](C)(c3ccc(-c4cnc(N)nc4)cc3)C3CC3)no2)cn1 [BI 665915]
inactive: [1] 100% | [2] 100% | [3] 72% | [4] 99% | [5] 80% | [6] 85%
